In patent US20110245265A1, “CXCR4 ANTAGONISTS FOR KIDNEY INJURY” (GENZYME CORPORATION, priority 2008, published 2011):
Entries after “also recorded” stand apart in the source; their conditions may differ. Where two headings read alike, the source gives them in different places.

Assays:
[1] = system: renal ischemia-reperfusion injury; experiment: Microvascular permeability: rat IgG immunostaining of kidney and serum vWF ELISA after renal ischemia-reperfusion; assay type: in vivo
Excerpt: Leakage of plasma proteins and secretion of von Willebrand Factor (vWF) are two indicators of the loss of microvascular integrity. FIGS. 3A and 3B are images of kidney tissue harvested 24 hrs after renal ischemia-reperfusion from subjects treated with the vehicle and AMD3465, respectively; tissue sections were immunostained with an antibody that recognizes rat immunoglobulin (IgG) and immunoreactivity quantified by Metamorph analysis illustrated in FIG. 3C. […] Renal ischemia-reperfusion rats that received AMD3465 represent Group 1 rats in FIG. 1A.
(§1) Data for FIGS. 8A, 8B and 8C were generated as described for FIGS. 2C, 2D and 3C, respectively.

myeloperoxidase activity = conditions: both regimens of FIG. 6A; FIG. 8D
Excerpt: as §1

[2] = system: renal ischemia-reperfusion injury; experiment: Kidney histology: injury score (hematoxylin/eosin) and TUNEL score after renal ischemia-reperfusion; assay type: in vivo, rat
Protocol: Rats were dosed as described for Group 1 rats in FIG. 1A. […] FIGS. 2C and 2D show graphs of the Injury and TUNEL score, respectively. Injury was evaluated by scoring hematoxylin and eosin stained kidney sections on a scale of 1 to 4 for proteinaceous cast formation, cell exfoliation, vascular congestion and loss of tubular architecture. TUNEL staining was carried out on kidney sections to identify apoptotic cells that were then quantified by Metamorph analysis.
as §1

white blood cells = conditions: normal rats; single dose 1 mg/kg at time 0 versus 0.1 mg/kg twice (time 0 and 3 hrs later); FIG. 9
[3] = system: renal ischemia-reperfusion injury; experiment: Renal function (creatinine, BUN) in rat model of renal ischemia-reperfusion injury; assay type: in vivo; conditions: for effect on creatinine: FIG. 7B; for renal function loss / acute kidney injury: P≦0.05; for plasma creatinine: not significant (P>0.05), FIG. 5B; for creatinine levels: FIG. 1B
Protocol: This example illustrates the effect of multiple dosing strategies of AMD3465 in an in vivo rat model of renal ischemia-reperfusion injury in which the renal artery and vein of both kidneys were clamped for 45 minutes followed by removal of the clamps and reperfusion with blood. […] Group 1 follows this dosing regimen as illustrated in FIG. 1A. FIGS. 1B and 1C show creatinine and BUN levels in mg/dL of Group 1 subjects compared to subjects following different dosing strategies shown in FIG. 1A using 10 mg/kg. Also shown in FIG. 1A—Group 2 was dosed at −15 min and +2 hrs and +4 hrs and Group 3 at time 0 and +2 hrs.
FIG. 5A diagrams the dosing regimen timeline for groups 1 and 2. FIGS. 5B, 5C and 5D show the creatine (serum or plasma) and blood urea nitrogen levels of the AMD treated groups, vehicle treated and normal subjects. Dosing was carried out with two 1 mg/kg administrations (Group 1) or 5 mg/kg in a single dose (Group 2). […] FIG. 5C and FIG. 5D illustrate individual data points of each rat for plasma creatinine and blood urea nitrogen, respectively.
FIG. 6A illustrates the dosing regimen.
FIG. 7A illustrates the dosing regimen. Group 1 was administered 0.01 mg/kg both 15 minutes before and 3 hours after ischemia; Group 2 was administered 0.1 mg/kg at 15 minutes before.

[4] = system: IL-6/IL-10 mRNA expression; conditions: Group 1 dosing
[5] = rat, in vivo
Protocol: FIG. 4A provides body weight data of subjects administered vehicle, and subjects in Group 1 and Group 2 (Groups described in FIG. 1A). […] FIG. 4B gives white blood cell (WBC) counts at 24 hours of Group 1 and 2 subjects, subjects administered vehicle and normal subjects administered AMD3465.

c1cc(CN2CCCNCCNCCCNCC2)ccc1CN1CCCNCCNCCCNCC1 [AMD3100, 1,1′-[1,4-phenylene-bis(methylene)]-bis-1,4,8,11-tetraazacyclotetradecane]
luminal IgG score ([1]; regimen of FIG. 6A (0.1 mg/kg twice or 1.0 mg/kg once), FIG. 8C): significant effect
myeloperoxidase activity, a measure of neutrophilic infiltration into the kidney tissue (myeloperoxidase activity): lowered myeloperoxidase activity
TUNEL score ([2]; regimen of FIG. 6A (0.1 mg/kg twice or 1.0 mg/kg once), FIG. 8B): significant effect
injury score ([2]; regimen of FIG. 6A (0.1 mg/kg twice or 1.0 mg/kg once), compared to vehicle, FIG. 8A): lowered significantly
mobilization of white blood cells (white blood cells): Comparable results
effect on creatinine ([3]; 0.01 mg/kg both 15 minutes before and 3 hours after ischemia (Group 1, FIG. 7A)): less positive results
renal function loss / acute kidney injury ([3]; 0.1 mg/kg 15 minutes prior to ischemia and 3 hrs later (Group 1, FIG. 6A)): therapeutically effective
effect on creatinine ([3]; 0.1 mg/kg at 15 minutes before ischemia (Group 2, FIG. 7A)): comparable to that shown in FIG. 6B
renal function loss / acute kidney injury ([3]; 1 mg/kg only at 15 minutes prior to ischemia (Group 2, FIG. 6A)): therapeutically effective
rats that demonstrated lower plasma creatinine (individual data points) ([3]; FIG. 5C, dosing of FIG. 5A): five
plasma creatinine levels ([3]; regimens of FIG. 6A (0.1 mg/kg twice or 1 mg/kg once), FIG. 6B): reduction
BUN levels ([3]; regimens of FIG. 6A (0.1 mg/kg twice or 1 mg/kg once), FIG. 6C): reduction
plasma BUN ([3]; regimens of FIG. 7A (0.01 mg/kg twice or 0.1 mg/kg once), FIG. 7C compared with FIG. 6C): only slightly less effective
plasma creatinine ([3]; single dose of 5 mg/kg (Group 2, FIG. 5A)): decrease
plasma creatinine ([3]; two doses of 1 mg/kg (Group 1, FIG. 5A)): decrease

c1ccc(CNCc2ccc(CN3CCCNCCNCCCNCC3)cc2)nc1 [AMD3465, N-[1,4,8,11-tetraazacyclotetradecanyl-1,4-phenylene-bis-(methylene)]-2-aminomethyl-pyridine]
frequency of serum proteins measured by rat IgG in the renal tubular lumen ([1]; Group 1 dosing, kidney harvested 24 hrs after renal ischemia-reperfusion, vs vehicle, FIG. 3C): less
circulating levels of the cleaved form of von Willebrand factor (serum, ELISA) ([1]; Group 1 dosing, vs vehicle, FIG. 3D): lower
structural integrity of the kidney ([2]; Group 1 dosing (10 mg/kg -15 min, +2 hrs), 24 hr post-reperfusion, vs vehicle, 10 mg/kg): maintained structural integrity; also recorded: remained intact
renal injury (Injury score) ([2]; Group 1 dosing (10 mg/kg -15 min, +2 hrs), 24 hr post-reperfusion, vs vehicle, FIG. 2C, 10 mg/kg): decreasing renal injury; also recorded: significantly reduced
cell death (TUNEL score) ([2]; Group 1 dosing (10 mg/kg -15 min, +2 hrs), 24 hr post-reperfusion, vs vehicle, FIG. 2D, 10 mg/kg): decreasing; also recorded: significantly reduced
loss of renal function based on levels of serum creatine and serum blood urea nitrogen (BUN) ([3]; 10 mg/kg 15 min prior to ischemia and 2 hrs later (Group 1), 24 hrs after reperfusion): ameliorated the loss of renal function
creatinine levels ([3]; Group 1: 10 mg/kg at -15 min and +2 hrs, 24 hrs after reperfusion, P<0.05): closest to normal
BUN levels ([3]; Group 1: 10 mg/kg at -15 min and +2 hrs, 24 hrs after reperfusion, FIG. 1C, P<0.05): closest to normal
creatinine levels ([3]; Group 2: 10 mg/kg at -15 min, +2 hrs and +4 hrs, 24 hrs after reperfusion): closest to normal
BUN levels ([3]; Group 2: 10 mg/kg at -15 min, +2 hrs and +4 hrs, 24 hrs after reperfusion, FIG. 1C): closest to normal
ratio of IL-6/IL-10 mRNA expression ([4]; 5 hrs post-reperfusion, compared to vehicle): drops more drastically
ratio of IL-6/IL-10 mRNA expression ([4]; 24 hrs post-reperfusion): has dropped
body weight [5]: lost less body weight
tolerability [5]: well tolerated
white blood cell (WBC) counts [5]: comparable
